Results on 25 compounds are retold here after PubChem BioAssay (NCI).

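Compound exposure: 48 hours, 5 concentrations, 96-well plates. Abbreviation: GI50, concentration required for 50% inhibition of growth. TGI is the concentration that stops growth completely.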

One test deals with A549 NSCLC. The test can be described thus: NCI anticancer screen, dose series, 48 h.
In the case of `CC1=CC(=O)[C@@H](O)[C@]2(C)[C@H]3[C@@]4(O)OC[C@]35[C@H]([C@@H](C)[C@H]4O)[C@@H](O)C(=O)O[C@@H]5C[C@@H]12`, the TGI came out at 15.5 µM.

`O=C(NC(=O)c1cn(CCNCCO)c(=O)[nH]c1=O)OCc1ccccc1` registered a TGI above 100 µM.

Turning to `CCSc1[nH]c(Nc2nc(-c3ccccc3)n(-c3ccccc3)n2)c(C(N)=O)c1C(N)=O`, the TGI is above 10 µM.

With `CCC1C2C=CC(CC2)N1S(=O)(=O)c1ccc(C)cc1` (stereo not given), the TGI is above 100 µM.

As to `COc1ccc2[nH]cc(-c3nc(-c4c[nH]c5ncccc45)cs3)c2c1`, the GI50 is 3.4 µM and the TGI was above 100 µM.

`O=C(N/N=C1/C(=O)N(c2ccc(Cl)cc2Cl)C(=O)C(=O)C1c1nc2ccccc2o1)c1ccccc1O` (stereo not given): the TGI was above 100 µM.

Compound `O=c1cc(-c2ccccc2)[nH]c2c(S)cccc12` yielded a TGI above 100 µM.

Turning to `CC(=O)O[C@H]1CCC2[C@@H]3CCC4=C(O)c5nocc5C[C@]4(C)C3CC[C@@]21C` (stereo not given in full), the TGI is above 100 µM.

The compound `COc1ccc(/C(=N\NC(=O)C(N)=O)C(c2ccc(OC)cc2)C2(O)C(=O)Nc3c(Cl)cccc32)cc1` (stereo not given) showed a TGI above 100 µM.

Take `COc1ccccc1N1CCN(CCCn2c(=O)c3c(OC)nc(C)cc3c(=O)n2-c2ccccc2)CC1`: the GI50 is above 100 µM and the TGI was above 100 µM.

With `Cc1ccc(-c2nc3ccc([N+](=O)[O-])cc3[nH]2)cc1`, the TGI was above 100 µM.

The subject of another test is A498 renal. The test can be described thus: NCI anticancer screen, dose series, 48 h.
`c1ccc(SC2CCSc3ccccc3C2Sc2ccccc2)cc1` (stereo not given): the TGI is above 100 µM.

On to `CC(C)=CCc1cc(O)cc2c1OC(C=C(C)C)C1=C2C(=O)C2=C(NCCS2(=O)=O)C1=O` (stereo not given), for which the GI50 was 2.94 µM and the TGI was 5.47 µM.

Regarding `Cc1c(Cl)cccc1N1C(=O)C(Cl)=C(Cl)C1=O`, the TGI is above 100 µM.

In the case of `COc1cccc(/C=N/[N-]C(=O)c2ccncc2)c1[O-].[Cu+2].[OH3+]`, the GI50 was 58.4 µM and the TGI was above 100 µM.

In the case of `O=C1NC(=S)NNC12c1ccccc1-c1ccccc12`, the TGI was determined as 9.93 µM.

As to `COc1c(OC)c(OC)c(C(=O)/C=C/c2ccccc2)c(OC)c1OC`, the TGI amounted to 17.5 µM.

With `NS(=O)(=O)c1ccc(N(/C=C/C(=O)C(F)(F)F)CC(=O)c2ccc(Cl)cc2)cc1`, the GI50 was above 100 µM and the TGI was above 100 µM.

For the compound `Cc1cn2c(/C=C3\C(=O)Nc4ccc(O)cc43)c(-c3ccc(Cl)cc3)nc2s1`, the GI50 was 16.8 µM and the TGI is 38.8 µM.

`CC1=CC(=O)[C@@H](O)[C@]2(C)[C@H]3[C@@]4(O)OC[C@]35[C@H]([C@@H](C)[C@H]4O)[C@@H](O)C(=O)O[C@@H]5C[C@@H]12` gave a TGI of 4.45 µM.

As for `CCC1C2C=CC(CC2)N1S(=O)(=O)c1ccc(C)cc1` (stereo not given), the TGI was above 100 µM.

Consider `COc1ccc2[nH]cc(-c3nc(-c4c[nH]c5ncccc45)cs3)c2c1`, for which the GI50 is 1.16 µM and the TGI was above 100 µM.

Take `O=C(N/N=C1/C(=O)N(c2ccc(Cl)cc2Cl)C(=O)C(=O)C1c1nc2ccccc2o1)c1ccccc1O` (stereo not given): the TGI came out at 88.2 µM.

In the case of `CC(=O)O[C@H]1CCC2[C@@H]3CCC4=C(O)c5nocc5C[C@]4(C)C3CC[C@@]21C` (stereo not given in full), the TGI is above 100 µM.

Consider `COc1ccccc1N1CCN(CCCn2c(=O)c3c(OC)nc(C)cc3c(=O)n2-c2ccccc2)CC1`, for which the GI50 was above 100 µM and the TGI is above 100 µM.

The test system of the next test is RXF 393 renal. The test can be described thus: NCI anticancer screen, dose series, 48 h.
Compound `COC(=O)[C@]1(C)CCCC2(C)C1CC[C@H]1C=C(C)[C@H]3CCC12C3` (stereo not given in full) yielded a TGI above 100 µM.

Regarding `O=C(Nc1cc(Cl)ccc1Cl)c1cc2cccc(Cl)c2oc1=O`, the TGI is above 100 µM.

The compound `Cc1ccc(Cn2c(C)nc3c2C(=O)c2ccccc2C3=O)cc1` yielded a TGI of 28.7 µM.

Consider `CC(C)=CCc1cc(O)cc2c1OC(C=C(C)C)C1=C2C(=O)C2=C(NCCS2(=O)=O)C1=O` (stereo not given), for which the GI50 was 2.15 µM and the TGI was found to be 4.7 µM.

Take `Cc1c(Cl)cccc1N1C(=O)C(Cl)=C(Cl)C1=O`: the TGI came out at 97.2 µM.

As for `COc1ccc(C(O)c2nccn2C)c(OC)c1` (stereo not given), the TGI is above 100 µM.

With `NS(=O)(=O)c1ccc(N(/C=C/C(=O)C(F)(F)F)CC(=O)c2ccc(Cl)cc2)cc1`, the GI50 was above 100 µM and the TGI was above 100 µM.

`C1CSCCSCCS1` displayed a TGI above 100 µM.

`CC1=CC(=O)[C@@H](O)[C@]2(C)[C@H]3[C@@]4(O)OC[C@]35[C@H]([C@@H](C)[C@H]4O)[C@@H](O)C(=O)O[C@@H]5C[C@@H]12` had a TGI of 4.46 µM.

Turning to `O=C(NC(=O)c1cn(CCNCCO)c(=O)[nH]c1=O)OCc1ccccc1`, the TGI is above 100 µM.

In turn, `CCSc1[nH]c(Nc2nc(-c3ccccc3)n(-c3ccccc3)n2)c(C(N)=O)c1C(N)=O` showed a TGI above 10 µM.

The compound `O=c1cc(-c2ccccc2)[nH]c2c(S)cccc12` registered a TGI above 100 µM.

The compound `CC(=O)O[C@H]1CCC2[C@@H]3CCC4=C(O)c5nocc5C[C@]4(C)C3CC[C@@]21C` (stereo not given in full) had a TGI above 100 µM.

For the compound `O=C1[C@@H]2C3c4ccccc4C([C@@H]2C(=O)N1c1ccccc1)S3(=O)=O`, the TGI is above 100 µM.

The compound `COc1ccc(/C(=N\NC(=O)C(N)=O)C(c2ccc(OC)cc2)C2(O)C(=O)Nc3c(Cl)cccc32)cc1` (stereo not given) yielded a TGI above 100 µM.

Turning to `Cc1ccc(-c2nc3ccc([N+](=O)[O-])cc3[nH]2)cc1`, the TGI is above 100 µM.

The next test concerns COLO 205 colon. The test can be described thus: NCI anticancer screen, dose series, 48 h.
`COC(=O)[C@]1(C)CCCC2(C)C1CC[C@H]1C=C(C)[C@H]3CCC12C3` (stereo not given in full) returned a TGI above 100 µM.

For `O=C(Nc1cc(Cl)ccc1Cl)c1cc2cccc(Cl)c2oc1=O`, the TGI is above 100 µM.

Take `Cc1ccc(Cn2c(C)nc3c2C(=O)c2ccccc2C3=O)cc1`: the TGI was above 100 µM.

With `CC(C)=CCc1cc(O)cc2c1OC(C=C(C)C)C1=C2C(=O)C2=C(NCCS2(=O)=O)C1=O` (stereo not given), the GI50 was 2.67 µM and the TGI came out at 5.57 µM.

Compound `Cc1c(Cl)cccc1N1C(=O)C(Cl)=C(Cl)C1=O` displayed a TGI above 100 µM.

With `COc1cccc(/C=N/[N-]C(=O)c2ccncc2)c1[O-].[Cu+2].[OH3+]`, the GI50 was 78.4 µM and the TGI was above 100 µM.

The compound `O=C1NC(=S)NNC12c1ccccc1-c1ccccc12` displayed a TGI above 10 µM.

On to `COc1c(OC)c(OC)c(C(=O)/C=C/c2ccccc2)c(OC)c1OC`, for which the TGI was found to be 31.9 µM.

Regarding `COc1ccc(C(O)c2nccn2C)c(OC)c1` (stereo not given), the TGI was above 100 µM.

`NS(=O)(=O)c1ccc(N(/C=C/C(=O)C(F)(F)F)CC(=O)c2ccc(Cl)cc2)cc1`: the GI50 was 32.2 µM and the TGI was above 100 µM.

As for `C1CSCCSCCS1`, the TGI is above 100 µM.
